The target of assay [1] is T1, human serotonin transporter (SERT) (Homo sapiens, UniProt P31645).
T1 construct: purchased PerkinElmer RBHSTM400UA
The assay can be described thus: biochemical. The assay is classed as binding. On the procedure: A commonly applied SERT binding assay involves competition binding assays employing radiolabelled ligands. […] Radioactive binding assays were carried out using the Scintillation Proximity Assay (SPA). For saturation binding assay, mixtures of 9 μg of membrane containing human SERT was pre-coupled to 1 mg of SPA beads at room temperature in a tube rotator for 1 hour in binding buffer (50 mM Tris-HCl pH7.4, 120 mM NaCl, 5 mM KCl, 1 mM ascorbic acid, 10 μM pargyline HCl). […] After incubation, the samples are read on a MicroBeta 2 Microplate Counter. Non-specific binding was carried out in the presence of 200 μM of clomipramine hydrochloride (C7291-1G, Sigma). Equilibrium binding constant for imipramine (KD) was determined from saturation binding curve using one-site saturation binding analysis from GraphPad PRISM software (Version 9.2.0). All test compounds were dissolved to 100 mM in DMSO and dilutions were carried out in assay buffer. […] Ki values were calculated from the competition displacement data using the competitive binding analysis from GraphPad PRISM software. […] Vehicle (DMSO) without drug was used as a negative control.

The target in the next assay is T2, 5-HT2A receptor (Homo sapiens, UniProt P28223).
T2 construct: purchased PerkinElmer ES-313-M400UA
In words: 5-HT2A receptor radioligand competition assay (SPA, [3H]ketanserin). The assay is classed as binding. The note with it: 1 nM [3H]ketanserin, membranes containing 5-HT2A. On the procedure: Competition assays were performed as for 5-HT1A assays with the following differences. […] Determination of non-specific binding was carried out in the presence of […] of spiperone (S7395-250MG, Sigma-Aldrich). Equilibrium binding constant for ketanserin (Kd) was determined from saturation binding curves using the ‘one-site saturation binding analysis’ method in GraphPad PRISM software (Version 9.2.0).

In assay [2] the test system is human model (NT2) neurons. The assay can be described thus: Neuroplastogenicity (neurite outgrowth) assay in NT2 neurons. The assay is classed as cell-based. More on the design: key: a positive (+) designation indicating strong evidence of enhanced neurite outgrowth in drug-treated NT2 cells compared to vehicle-treated cells; a negative (−) designation indicating weak or no evidence of enhanced neurite outgrowth in drug-treated NT2 cells compared to vehicle-treated cells. Particulars: 1 or 10 μM, 48 h, visual inspection vs vehicle (0.1% DMSO). From the text: Classic psychedelics such as psilocybin and DMT show potential to treat anxiety and depression, and it has been theorized that such long-term improvements arise because these drugs rapidly and lastingly stimulate neuroplasticity (Calder and Hasler, 2023, Neuropsychopharmacol. 48:104-112). Thus, it was of interest to determine the potential of new compounds as neuroplastogens. Herein, we assess the capacity of various compounds to enhance neurite outgrowth in human model (NT2) neurons.
Human NT2/D1 precursor cells were purchased from the American Type Culture Collection (ATCC, Manassas, VA, USA). Neuronal differentiation was carried out as previously described (Roloff et al., 2015, PloS ONE 10:e0118536) with minor modifications. Firstly, NT2/D1 cells were seeded in T-25 suspension culture flasks (REF #690190, Greiner bio-one, Germany). Each flask contains a minimum of 5×10^6 cells in 10 ml of DMEM/F12 supplemented with 10% fetal bovine serum (FBS), 1% penicillin and streptomycin and 10 μM retinoic acid (RA) medium to start neuronal differentiation. The cells were cultured for 3 days in free floating medium. At the end of the incubation cells were trypsinized and collected by centrifugation, mechanically dispersed, and counted. Counted cells were seeded along Poly D-Lysine (PDL) coated cover slips (12 mm; diameter round, Fisher Scientific; GG-12-PDL) containing a minimum of 0.1×10^5 cells in culture medium without RA. The next day culture medium was replaced with RA medium containing 2% of FBS. These cells cultured for 5 days and two days later, RA medium was changed.
After cells had successfully attached and established along coverslips, the RA medium was replaced with new medium containing 2% FBS and one of the following: (1) test compound (1 or 10 μM), (2) RhoK (ROCK) inhibitor Y-27632 (1 μM) as a positive control (Dihydrochloride; Sigma-Aldrich) (Roloff et al., 2015, PloS ONE 10:e0118536); (3) DMT (1 or 10 μM) as a positive control (Calder and Hasler, 2023, Neuropsychopharmacol. 48:104-112), or (4) vehicle (0.1% DMSO) as a negative control. These cells were incubated for 48 hours under standard conditions (370C, 5% CO2). The cells cultured along coverslips were collected after 48 hours of treatment. The coverslips washed with calcium chloride and magnesium chloride-free phosphate buffered saline (PBS) pH 7.4 (Gibco, #70011-044) and fixed in paraformaldehyde (PFA) 4% in PBS (#J61899, thermoscientific) for 15 min at room temperature (RT) and washed three times with 0.01% of Triton-X100 in PBS (PBST) to remove remaining PFA and to permeabilize the cells. Non-specific binding sites were blocked with 5% of Bovine Serum Albumin (BSA) solution (#9048-46-8, Millipore) in PBST for 60 minutes at RT. Rabbit monoclonal antibody β-III-tubulin (1:5,000, ab52623, Abcam) was applied overnight (O/N) at 4° C. Next day cells are washed three times in PBST, neurons were incubated with secondary antibody Donkey anti-rabbit IgG(H+L) Alexa Fluor™ Plus488 (1:5000 #A32790, Invitrogen) for 1 hour at RT. These coverslips were mounted on Gluoromount-G™, with 4′6-diamidino-2′henylindoldihydrochloride (DAPI) (#E141818, Invitrogen). The immunofluorescence images were analyzed using an Olympus VS110 slide scanner microscope.
B-III-Tubulin immunofluorescence was quantified using ImageJ. Briefly, Corrected Total Cell Fluorescence (CTCF) was acquired for at least ˜8-10 representative cells, where CTCF=Integrated Density−[Area of selected cell*Mean Fluorescence of background]. The CTCF values, referred to herein as ‘signal intensities’, were used to calculate overall means±SD for each treatment. One-Way ANOVA was used to compare treatments. Further, the mean of each treatment was compared with the mean of the control treatment (RA-differentiated cells treated with vehicle, 0.1% DMSO) using Dunnett's multiple comparison procedure. […]

The target of another assay is T3, 5-HT1A receptor (Homo sapiens, UniProt P08908).
T3 construct: purchased Perkin Elmer 6110501400UA
T3 sequence (P08908 1-422): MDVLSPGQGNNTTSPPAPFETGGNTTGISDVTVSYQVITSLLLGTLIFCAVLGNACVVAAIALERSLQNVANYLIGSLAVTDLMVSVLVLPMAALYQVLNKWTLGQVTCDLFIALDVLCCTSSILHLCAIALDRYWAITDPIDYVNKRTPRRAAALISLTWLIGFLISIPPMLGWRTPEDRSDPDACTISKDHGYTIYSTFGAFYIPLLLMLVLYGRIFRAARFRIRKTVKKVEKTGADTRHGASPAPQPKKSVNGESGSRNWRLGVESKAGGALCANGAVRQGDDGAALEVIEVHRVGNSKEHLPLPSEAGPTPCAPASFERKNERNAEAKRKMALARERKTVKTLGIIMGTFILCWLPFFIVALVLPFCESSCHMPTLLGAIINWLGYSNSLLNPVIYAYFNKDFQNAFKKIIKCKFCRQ
The assay can be described thus: 5-HT1A receptor radioligand competition assay (SPA, [3H]8-hydroxy-DPAT). The assay is classed as binding. Particulars: 0.5 nM hot 8-hydroxy-DPAT; membranes containing 5-HT1A. Here is the method: 5-HT1A receptor. […] After incubation, the samples were read on a MicroBeta 2 Microplate Counter (perkinelmer.com). Non-specific binding was carried out in the presence of 100 μM of metergoline (M3668-500MG, Sigma-Aldrich). Equilibrium binding constant for 8-hydroxy-DPAT (KD) was determined from a saturation binding curve using one-site saturation binding analysis from GraphPad PRISM software (Version 9.2.0). Test compound was dissolved to 100 mM in dimethylsulfoxide (DMSO), and dilutions were carried out in assay buffer. […] Ki values were calculated from the competition displacement data using the competitive binding analysis from GraphPad PRISM software. […] Conversely, blank preparations lacking any drug (simply termed ‘DMSO’ samples) were used as negative controls, in addition to those containing tryptophan which is not known to bind the 5-HT1A receptor.
For orientation: In a radioligand displacement assay an active substance lowers the binding of a labelled ligand.

[3] abbreviates: 1 nM imipramine, membranes containing human SERT, read-out: SERT, Ki.

Read-outs that look alike come from different tables or passages of the source.

Here are results for three compounds from patent US12577232B2, “N-heterocycle substituted tryptamine derivatives and methods of using” (ENVERIC B[…] INC., priority 2024, dated 2026).

One may read the Ki as the dissociation constant of the complex between target and ligand, obtained from inhibition or displacement.

T1 sequence (P31645 whole entry): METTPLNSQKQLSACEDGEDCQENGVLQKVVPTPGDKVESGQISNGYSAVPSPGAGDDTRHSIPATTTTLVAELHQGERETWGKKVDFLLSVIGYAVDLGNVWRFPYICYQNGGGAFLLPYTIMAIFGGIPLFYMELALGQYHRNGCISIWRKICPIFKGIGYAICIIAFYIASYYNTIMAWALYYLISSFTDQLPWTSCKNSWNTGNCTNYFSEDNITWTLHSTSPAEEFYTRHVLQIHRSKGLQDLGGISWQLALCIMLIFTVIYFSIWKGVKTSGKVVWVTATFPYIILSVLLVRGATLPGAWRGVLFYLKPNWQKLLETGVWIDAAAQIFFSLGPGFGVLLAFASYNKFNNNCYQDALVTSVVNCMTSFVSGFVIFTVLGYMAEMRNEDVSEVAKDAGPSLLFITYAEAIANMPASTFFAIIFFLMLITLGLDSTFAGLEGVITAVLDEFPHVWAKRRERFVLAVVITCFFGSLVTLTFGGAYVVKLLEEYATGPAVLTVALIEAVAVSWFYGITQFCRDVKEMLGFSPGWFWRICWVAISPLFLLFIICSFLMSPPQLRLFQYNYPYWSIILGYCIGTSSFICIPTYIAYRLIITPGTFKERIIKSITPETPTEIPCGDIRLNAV
T2 sequence (P28223 whole entry): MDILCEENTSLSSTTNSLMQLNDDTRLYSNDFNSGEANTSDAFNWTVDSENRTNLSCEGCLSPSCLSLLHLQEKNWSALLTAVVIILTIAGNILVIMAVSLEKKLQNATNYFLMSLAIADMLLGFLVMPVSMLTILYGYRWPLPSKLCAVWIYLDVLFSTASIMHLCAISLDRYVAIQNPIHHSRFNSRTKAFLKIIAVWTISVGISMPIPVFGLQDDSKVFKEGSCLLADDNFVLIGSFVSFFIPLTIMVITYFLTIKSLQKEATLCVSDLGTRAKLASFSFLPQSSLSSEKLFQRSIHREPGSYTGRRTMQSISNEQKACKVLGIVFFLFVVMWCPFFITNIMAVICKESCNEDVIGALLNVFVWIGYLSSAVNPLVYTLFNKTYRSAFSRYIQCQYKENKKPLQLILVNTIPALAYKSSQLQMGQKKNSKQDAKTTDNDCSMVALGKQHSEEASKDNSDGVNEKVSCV

For `COc1cc(CCN)c(OC)cc1Br` [Compound 2C-B, reference compound], the inhibition constant Ki in assay [1] (setting [3]) amounted to 11.4 µM.

For `CN(C)CCc1c[nH]c2ccccc12` [DMT, dimethyltryptamine, reference compound], the Ki in assay [1] (setting [3]) amounted to 2.58 µM; at 5-HT2A receptor (5-HT2A, Ki), 1.03 µM. The “Evidence of neurite outgrowth: Yes (+) or No (−)” value in assay [2] was “+”.

For `CNC(C)Cc1ccc2c(c1)OCO2` (stereo not shown) [MDMA, 3,4-methylenedioxymethamphetamine, reference compound], the Ki on 5-HT1A receptor was 11 µM; in assay [1], 5.8 µM; on 5-HT2A receptor (read-out: 5-HT2A, Ki), 39.9 µM.
